Measured values taken from ChEMBL document CHEMBL1138663, “Synthesis and aromatase inhibitory activity of novel pyridine-containing isoflavones” (J Med Chem, 2004).
pKi: −log10 of the molar value.

Biological target: T1, Aromatase (Homo sapiens, UniProt P11511)
T1 sequence (P11511 whole entry): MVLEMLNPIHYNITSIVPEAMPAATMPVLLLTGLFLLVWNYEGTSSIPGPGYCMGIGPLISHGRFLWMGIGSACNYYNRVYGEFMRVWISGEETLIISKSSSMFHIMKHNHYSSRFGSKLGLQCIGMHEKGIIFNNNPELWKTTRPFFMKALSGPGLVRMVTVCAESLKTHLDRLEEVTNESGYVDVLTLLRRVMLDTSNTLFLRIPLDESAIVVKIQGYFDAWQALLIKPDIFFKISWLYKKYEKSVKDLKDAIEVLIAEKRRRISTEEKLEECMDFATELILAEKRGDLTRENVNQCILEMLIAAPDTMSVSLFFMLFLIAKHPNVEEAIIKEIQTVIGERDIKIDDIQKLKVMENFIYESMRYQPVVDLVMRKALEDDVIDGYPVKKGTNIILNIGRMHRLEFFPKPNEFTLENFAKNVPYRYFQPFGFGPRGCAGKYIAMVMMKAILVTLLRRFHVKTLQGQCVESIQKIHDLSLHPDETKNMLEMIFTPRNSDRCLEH

pKi: 3.91
SMILES: O=c1c(-c2ccc(O)cc2)coc2cc(O)cc(O)c12 [GENISTEIN]
